Laboratory results published in US20250120943A1, “RIFAMYCIN OPHTHALMIC COMPOSITION AND USE THEREOF” (AMD THERAPEUTICS LLC, priority 2022, published 2025).
Marks after values point to notes of the source that are not given here.

How the values were obtained:
[1] = Rabbit, 0.5%, 50 μL, 250 μg; Sigurdsson et al. 2007; cited from earlier work
[2] = Retina exposure level of rifampicin after topical eye drops (LC/MS); assay type: in vivo, Sprague-Dawley rats; conditions: rat, topical eye drops 0.25% rifampicin (Ex. 1A), average of n = 3
Description: The remaining two rats received the same application, but 10 drops of the eye drops, in each eye under isoflurane sedation. A single drop contained 5 μL of the above-described formulation, and application of each drug drop was carried out with intervals of 30 minutes. After the eye drop application, the retina was excised from each rat under a dissection microscope. In addition, “non-treated” negative controls were used, and the retina was excised from two rats without performing any treatments on the rats. The retina was placed in a 1.5-ml microcentrifuge tube (1 retina/tube), and was fully washed with DPBS. After completion of the washing procedures, the retinal tissues in the microcentrifuge tube were frozen in dry ice, and were then preserved for quantification by LC/MS analysis.
At time points of 1 hour, 3 hours, and 7 hours after the application of the eye drops, the retinal tissues were excised from the rats under a dissection microscope. In addition, “non-treated” negative controls were used, and the retina was excised from one rat without performing any treatments on the rats. The retina was placed in a 1.5-ml microcentrifuge tube (1 retina/tube), and was fully washed with DPBS. After completion of the washing procedures, the retinal tissues in the microcentrifuge tube were frozen in dry ice, and were then preserved for quantification by LC/MS analysis. […]

[3] = test system: Neovascularization in retina of oxygen-induced retinopathy rat models; test: Oxygen-induced retinopathy rat model, capillaries counted in histology sections; assay type: in vivo, Sprague-Dawley rat; conditions: vehicle only 16.3
[4] = test system: CNV induced in sub-retina tissues; test: Mouse laser-induced CNV model, CNV area by FITC-dextran fluorescence; assay type: in vivo, C57BL/6J mice; conditions: for Average CNV area (%): n = 10, day 7, vehicle = 100
Description: Eyes of C57BL/6J mice were laser irradiated, and CNV were induced in sub-retina tissues in the eyes. […] In 7 days after the laser irradiation, a FITC-dextran solution was administered to the tail vein. The eyeballs were removed under euthanasia, and the removed eyeballs were fixed with 4% paraformaldehyde phosphate buffer. The cornea, iris and lens were excised, and retinal tissues other than retinal pigment epithelium cells were stripped using a microspacer. The optic cups were divided into 4 to 6 sections using a corneal microscissor, and they were placed on a slide glass. […] The CNV areas were quantified using ImageJ (TABLES 11-1 and 11-2; Image software publicly available by NIH).

[5] = Mouse pharmacokinetics after SC injection, sclera+sub-retina complex (LC/MS)
Description: This effective dosage and administration route was evaluated in dose escalation studies by using the mouse laser-induced CNV model. […] In 1 hr, 3 hr, 6 hr, and 18 hr after the SC injection, eyeballs were extracted. Tissue from the retina and tissue from the sclera+sub-retina complex were isolated and extracted. These tissues were immediately frozen in liquid nitrogen. The tissue was subjected to LC/MS analysis for quantitation. The detection limit was 0.25 ng/g tissue.

Rifampicin extracted from retina ([2]; 3 drops of 5 μL at 30 min intervals)	Rifampicin extracted from retina ([2]; 10 drops of 5 μL at 30 min intervals)	Ave. rifampicin delivered to sclera + sub-retina complex ([5]; SC 0.7 mg/kg, 18 hr, detection limit 0.25 ng/g tissue)	Share of rifampicin in sub-retina+sclera complex delivered to the sub-retina ([5]; SC injection)	SMILES	Drug amount detected in retina [1]	Average numbers of capillaries in high power field per eye ([3]; 0.25% rifampicin topical eye drop (Ex. 1A), three times daily P15-P19, n = 3, P value = 0.0058)	Average numbers of capillaries in high power field per eye ([3]; 0.5% rifampicin SC injection (Ex. 6A), 20 mg/kg once a day P15-P19, n = 3, P value = 0.0102)	Dosage that significantly inhibited neovascularization (effective dosage) ([4]; SC injection, mouse laser-induced CNV model)	Average CNV area (%) ([4]; SC once daily 0.2 mg/kg, P >0.05 (TABLE 11-1))	Average CNV area (%) ([4]; SC once daily 0.7 mg/kg, P 0.003 (TABLE 11-2))	Average CNV area (%) ([4]; SC once daily 0.7 mg/kg, P 0.045 (TABLE 11-1))	Average CNV area (%) ([4]; SC once daily 2 mg/kg, P 0.011 (TABLE 11-2))
–	–	–	–	C[C@@H]1C[C@H]2[C@@H]3CCC4=CC(=O)C=C[C@]4(C)[C@@]3(F)[C@@H](O)C[C@]2(C)[C@@]1(O)C(=O)CO [Dexamethasone]	About 33 ng/1 g ng/1 g of retinal tissues	–	–	–	–	–	–	–
1,288* ng/1 g of tissues	2,939* ng/1 g of tissues	BDL	approximately 70%	CO[C@H]1/C=C/O[C@@]2(C)Oc3c(C)c(O)c4c(O)c(c(/C=N/N5CCN(C)CC5)c(O)c4c3C2=O)NC(=O)/C(C)=C\C=C\[C@H](C)[C@H](O)[C@@H](C)[C@@H](O)[C@@H](C)[C@H](OC(C)=O)[C@@H]1C [Rifampicin, rifampicin]	–	7.78	9.28	0.7 mg/kg	90.17%	74.78%	81.00%	78.33%
